Reference: ChEMBL document CHEMBL1150977, “A quantitative analysis of kinase inhibitor selectivity” (Nat Biotechnol, 2008)

What was measured:
[1] = biological target: T1, Protein kinase C epsilon type (Homo sapiens, UniProt Q02156)
T1 sequence (Q02156 whole entry): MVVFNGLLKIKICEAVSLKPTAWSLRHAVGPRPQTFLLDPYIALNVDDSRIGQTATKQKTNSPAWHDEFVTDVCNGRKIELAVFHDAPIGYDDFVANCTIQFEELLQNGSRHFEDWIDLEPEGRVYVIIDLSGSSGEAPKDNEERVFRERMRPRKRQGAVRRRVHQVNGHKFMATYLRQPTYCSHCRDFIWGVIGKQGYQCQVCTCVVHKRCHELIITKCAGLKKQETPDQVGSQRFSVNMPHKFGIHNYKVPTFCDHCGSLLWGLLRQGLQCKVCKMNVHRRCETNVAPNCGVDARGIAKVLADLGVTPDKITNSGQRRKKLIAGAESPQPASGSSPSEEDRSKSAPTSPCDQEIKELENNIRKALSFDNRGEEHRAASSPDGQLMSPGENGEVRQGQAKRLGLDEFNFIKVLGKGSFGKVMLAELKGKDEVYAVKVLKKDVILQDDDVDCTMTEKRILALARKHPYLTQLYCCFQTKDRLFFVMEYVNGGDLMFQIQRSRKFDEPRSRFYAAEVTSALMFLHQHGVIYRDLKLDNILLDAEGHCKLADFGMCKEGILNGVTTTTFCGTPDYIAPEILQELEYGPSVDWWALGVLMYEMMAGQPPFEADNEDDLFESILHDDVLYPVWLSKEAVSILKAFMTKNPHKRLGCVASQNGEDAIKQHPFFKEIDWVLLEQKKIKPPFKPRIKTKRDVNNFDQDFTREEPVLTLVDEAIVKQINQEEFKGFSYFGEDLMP

[2] = biological target: T2, Cyclin-G-associated kinase (Homo sapiens, UniProt O14976)
T2 sequence (O14976 whole entry): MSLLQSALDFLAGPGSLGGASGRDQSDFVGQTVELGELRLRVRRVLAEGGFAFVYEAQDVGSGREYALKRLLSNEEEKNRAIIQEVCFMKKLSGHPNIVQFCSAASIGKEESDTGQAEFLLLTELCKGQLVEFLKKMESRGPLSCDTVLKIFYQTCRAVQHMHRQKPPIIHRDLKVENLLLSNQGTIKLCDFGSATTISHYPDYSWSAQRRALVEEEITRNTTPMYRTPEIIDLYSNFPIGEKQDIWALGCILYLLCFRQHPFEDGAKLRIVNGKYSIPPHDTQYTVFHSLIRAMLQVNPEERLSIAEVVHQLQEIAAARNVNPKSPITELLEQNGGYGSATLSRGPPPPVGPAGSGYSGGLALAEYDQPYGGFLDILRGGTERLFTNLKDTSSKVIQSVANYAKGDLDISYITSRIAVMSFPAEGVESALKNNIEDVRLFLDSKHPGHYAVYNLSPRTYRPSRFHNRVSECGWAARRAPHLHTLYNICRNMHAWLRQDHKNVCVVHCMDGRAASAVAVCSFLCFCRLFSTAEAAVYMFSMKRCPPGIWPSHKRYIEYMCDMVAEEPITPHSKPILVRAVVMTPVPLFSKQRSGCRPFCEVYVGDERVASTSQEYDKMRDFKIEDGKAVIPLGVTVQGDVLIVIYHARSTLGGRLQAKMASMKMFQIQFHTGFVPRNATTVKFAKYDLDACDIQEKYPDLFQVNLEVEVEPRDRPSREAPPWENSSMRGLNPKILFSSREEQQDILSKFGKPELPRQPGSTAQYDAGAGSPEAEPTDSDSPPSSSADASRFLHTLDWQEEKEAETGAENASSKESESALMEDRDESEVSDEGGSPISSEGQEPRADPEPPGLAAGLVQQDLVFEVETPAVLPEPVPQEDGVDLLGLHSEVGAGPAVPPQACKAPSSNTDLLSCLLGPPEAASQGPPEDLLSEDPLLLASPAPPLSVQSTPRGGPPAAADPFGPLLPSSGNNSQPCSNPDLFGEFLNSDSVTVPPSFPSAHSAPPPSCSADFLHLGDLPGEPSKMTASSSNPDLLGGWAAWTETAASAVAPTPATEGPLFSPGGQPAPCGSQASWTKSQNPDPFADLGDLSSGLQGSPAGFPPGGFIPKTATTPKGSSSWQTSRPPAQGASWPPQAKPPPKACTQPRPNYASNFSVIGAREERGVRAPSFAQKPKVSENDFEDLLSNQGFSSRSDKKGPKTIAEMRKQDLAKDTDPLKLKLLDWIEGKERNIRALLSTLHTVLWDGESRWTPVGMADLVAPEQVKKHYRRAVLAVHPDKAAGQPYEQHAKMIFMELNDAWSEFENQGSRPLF

[3] = biological target: T3, Interleukin-1 receptor-associated kinase 3 (Homo sapiens, UniProt Q9Y616)
T3 sequence (Q9Y616 whole entry): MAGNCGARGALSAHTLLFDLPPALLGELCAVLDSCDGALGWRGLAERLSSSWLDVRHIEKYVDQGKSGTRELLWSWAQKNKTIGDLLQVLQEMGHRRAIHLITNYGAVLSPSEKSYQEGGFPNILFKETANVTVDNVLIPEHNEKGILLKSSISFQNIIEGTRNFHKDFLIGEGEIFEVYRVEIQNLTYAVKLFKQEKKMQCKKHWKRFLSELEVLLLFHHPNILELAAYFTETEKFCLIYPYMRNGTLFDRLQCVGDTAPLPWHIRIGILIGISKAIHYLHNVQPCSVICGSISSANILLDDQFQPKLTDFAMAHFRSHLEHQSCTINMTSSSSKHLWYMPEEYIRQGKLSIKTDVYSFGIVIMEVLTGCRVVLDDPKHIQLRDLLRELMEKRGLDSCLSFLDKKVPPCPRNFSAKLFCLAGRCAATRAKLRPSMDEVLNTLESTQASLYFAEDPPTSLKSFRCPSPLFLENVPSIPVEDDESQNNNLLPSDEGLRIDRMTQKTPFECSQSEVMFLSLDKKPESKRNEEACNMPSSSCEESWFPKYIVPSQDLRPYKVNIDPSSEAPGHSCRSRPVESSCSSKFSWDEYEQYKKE

[4] = biological target: Platelet-derived growth factor receptor beta (Homo sapiens, UniProt P09619)
Sequence of Platelet-derived growth factor receptor beta (P09619 whole entry): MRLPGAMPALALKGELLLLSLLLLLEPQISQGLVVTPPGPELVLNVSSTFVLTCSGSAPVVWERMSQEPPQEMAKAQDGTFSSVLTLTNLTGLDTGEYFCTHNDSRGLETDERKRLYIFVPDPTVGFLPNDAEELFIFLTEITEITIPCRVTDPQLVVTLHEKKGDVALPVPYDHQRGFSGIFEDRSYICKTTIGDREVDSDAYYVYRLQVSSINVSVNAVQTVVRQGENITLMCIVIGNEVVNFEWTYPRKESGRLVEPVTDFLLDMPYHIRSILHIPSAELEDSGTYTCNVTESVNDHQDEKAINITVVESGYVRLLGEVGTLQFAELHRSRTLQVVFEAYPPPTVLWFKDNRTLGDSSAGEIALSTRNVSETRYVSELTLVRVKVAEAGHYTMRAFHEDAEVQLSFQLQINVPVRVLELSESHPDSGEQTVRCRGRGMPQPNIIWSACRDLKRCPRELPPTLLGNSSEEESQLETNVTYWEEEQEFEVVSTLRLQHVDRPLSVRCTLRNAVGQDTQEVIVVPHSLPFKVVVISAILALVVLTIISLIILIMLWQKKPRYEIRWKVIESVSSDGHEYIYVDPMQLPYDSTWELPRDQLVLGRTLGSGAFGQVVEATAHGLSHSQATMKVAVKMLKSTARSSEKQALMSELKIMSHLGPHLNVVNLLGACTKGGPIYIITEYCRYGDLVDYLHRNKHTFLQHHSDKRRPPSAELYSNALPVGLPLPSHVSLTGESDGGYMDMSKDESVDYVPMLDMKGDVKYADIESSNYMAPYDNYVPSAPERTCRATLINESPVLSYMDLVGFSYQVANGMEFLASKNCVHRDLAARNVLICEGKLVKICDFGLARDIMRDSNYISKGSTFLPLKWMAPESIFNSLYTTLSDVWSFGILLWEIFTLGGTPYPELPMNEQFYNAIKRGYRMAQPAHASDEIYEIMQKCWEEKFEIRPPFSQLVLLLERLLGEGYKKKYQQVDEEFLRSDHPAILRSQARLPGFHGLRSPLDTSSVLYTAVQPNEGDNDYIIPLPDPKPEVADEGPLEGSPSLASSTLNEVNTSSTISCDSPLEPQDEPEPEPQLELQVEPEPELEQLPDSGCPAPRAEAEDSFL

Row | Compound | Kd [1] [µM] | Kd [2] [µM] | Kd [3] [µM] | Kd [4] [µM]
1 | CCOc1cc2ncc(C#N)c(Nc3ccc(F)c(Cl)c3)c2cc1NC(=O)/C=C/CN(C)C [PELITINIB] | > 10 | 0.0064 | > 10 | > 10
2 | COCC(=O)NC/C=C/c1ccc2ncnc(Nc3ccc(Oc4ccc(C)nc4)c(C)c3)c2c1 [CP-724714] | > 10 | > 10 | > 10 | > 10
3 | NC(=O)c1ccc(-c2nc(-c3ccc4c(c3)OCO4)c(-c3ccccn3)[nH]2)cc1 [SB-431542] | > 10 | > 10 | > 10 | > 10
4 | Nc1nc(Nc2ccc(S(N)(=O)=O)cc2)nn1C(=O)c1c(F)cccc1F [JNJ-7706621] | > 10 | – | 3.4 | –
5 | Oc1ccc(-c2nc(-c3ccncc3)c(-c3ccc(F)cc3)[nH]2)cc1 [SB-202190] | > 10 | – | > 10 | > 10
